# Where “and” joins values, the source holds several entries; their conditions need not be identical. Equal values may be shown once.
# Legend:
# Assay type in all cases: cell-based
# [1] = tested on: Escherichia coli (NBRC3972); test: Suppression of metabolite 4-methylhexanoic acid from 14-methylhexadecanoic acid
# Description: (§1) After culture on fabric prepared in the same manner as in the above (1), 3 ml of methanol was added, and extraction was carried out under ultrasonic irradiation for 30 minutes (20° C.). The extraction liquid was mixed with (a 1000 ppm methanol solution of) an ADAM reagent of Funakoshi Co., Ltd. at 1:1 (volume ratio) and left overnight under room temperature and dark place conditions. After that, 4-methyl-3-hexenoic acid as a metabolite from 14-methylhexadecanoic acid was quantified by HPLC. The quantification conditions are as follows.
# (§2) The production amount of 4-methyl-3-hexenoic acid after culture on the fabric to which each metabolism controlling agent was added was quantified, and the ratio of the production amount to that of 4-methyl-3-hexenoic acid in the case of adding no metabolism controlling agent (control) was calculated as a metabolite suppression rate (%). The higher a numerical value thereof is, the more the metabolism is suppressed. Note that the metabolite suppression rate was determined by the following formula:
# Metabolite suppression rate(%)=100×[(D−C)/D] • C: production amount of metabolite of example or comparative example (μg/fabric g) • D: production amount of metabolite of control (μg/fabric g)
# The metabolism of 14-methylhexadecanoic acid by bacteria of the genus Escherichia (Escherichia coli) was tested in the same manner as in example 1.
# In this example, Escherichia coli (NBRC3972) was used as a microorganism.
# Further, in this example, a bacterial suspension of 10^6 (CFU/ml) prepared by using an NB liquid medium diluted to 1/10 with ion exchange water was used as a bacterial suspension.
# Further, in this example, 4-methylhexanoic acid was quantified as a metabolite from 14-methylhexadecanoic acid, and the metabolite suppression rate was determined in the same manner as in example 1.
# Note that, in this example, C12OH (1-dodecanol) was used as the metabolism controlling agent.
# Rhodotorula mucilaginosa = test: as above
# Description: The extraction liquid was mixed with (a 1000 ppm methanol solution of) an ADAM reagent of Funakoshi Co., Ltd. at 1:1 (volume ratio) and left overnight under room temperature and dark place conditions. […] The quantification conditions are as follows. […] The higher a numerical value thereof is, the more the metabolism is suppressed. Note that the metabolite suppression rate was determined by the following formula: […] In this example, Rhodotorula mucilaginosa (strain isolated from clothing) was used as a microorganism. Further, in this example, the bacteria were precultured under conditions of a PDA agar medium (Difco), 30° C.; and 48 hours. Further, in this example, a bacterial suspension of 10^7 (CFU/ml) prepared by using a PDB liquid medium (Difco) diluted to 1/10 with ion exchange water was used as a bacterial suspension.
# Moraxella osloensis [2] = test: Examination example: suppression of metabolism of 14-methylhexadecanoic acid, components (a) and (b)/(b′); conditions: single agent 100 μg/fabric g
# Description: The suppression of metabolism of 14-methylhexadecanoic acid by bacteria of the genus Moraxella and the suppression of a metabolite therefrom were tested in the following manner.
# Moraxella osloensis (strain isolated from clothing) was precultured on an SCD-LP agar medium (NIHON PHARMACEUTICAL CO., LTD.) at 37° C.; for 24 hours, and a bacterial suspension of 10^6 (CFU/ml) was prepared by using an NB liquid medium (Difco) diluted to 1/20 with ion exchange water.
# A methanol solution in which 14-methylhexadecanoic acid (SIGMA-ALDRICH) was dissolved was added dropwise to 3 cm×3 cm pieces of sterilized plain-weave cotton fabric to make it adhered to the fabric. The adhesion amount of 14-methylhexadecanoic acid was set to 10 μg per piece of the plain-weave cotton fabric (100 μg/fabric g). Further, a methanol solution in which component (a) was dissolved, and then, a methanol solution in which component (b) or (b′) was dissolved were added dropwise to the fabric to which 14-methylhexadecanoic acid adhered, and it was thereafter dried for an hour. This fabric was placed in a sterilized screw tube bottle No. 3 (Maruemu Corporation) and 100 μl of the bacterial suspension was inoculated thereto, and culture was carried out under 37° C.; conditions for 21 hours.
# 3 ml of methanol was added to the screw tube bottle after culture, and extraction was carried out under ultrasonic irradiation for 30 minutes (20° C.). The extraction liquid was mixed with a (trimethylsilyl)diazomethane hexane solution (FUJIFILM Wako Pure Chemical Corporation) at 9:1 (volume ratio) and left overnight under room temperature and dark place conditions. After that, 14-methylhexadecanoic acid remaining on the fabric was quantified by GC. The quantification conditions for GC are as follows. • GC: Agilent 6890N • GC column: Agilent DB-1 30 m×250 μm×0.25 μm • Temperature rise condition: 50° C. (held for 3 minutes)-(10° C./min)-300° C. (held for 5 minutes) • Sample injection volume: 1 μl • Split ratio: 1:12 • Detector: FID
# as §2, with “residual” for “production”, “14-methylhexadecanoic” for “4-methyl-3-hexenoic”, “metabolism” for “metabolite”
# Metabolism suppression rate(%)=[1−(100−A)/(100−B)]×100 • A: residual amount of 14-methylhexadecanoic acid of reference or examination example (μg/fabric g) • B: residual amount of 14-methylhexadecanoic acid of control (μg/fabric g)
# A control is an example in which none of component (a), (b) or (b′) is added, and references 1-1, 2-1, 3-1 and 4-1 qualify as this (the same applies hereinafter). In these controls, the metabolism suppression rate is 0′.
# Moraxella osloensis [3] = test: Examination example: suppression of metabolite 4-methyl-3-hexenoic acid, components (a) and (b)/(b′); conditions: single agent 100 μg/fabric g
# Description: as §1
# Eluent: acetonitrile 61% (v/v), water 39% (v/v) Column temperature: 40° C. Sample injection volume: 10 μL Flow rate: 1.0 mL/min
# as §2, with “the” for “each”, “formula. In references 1-1, 2-1, 3-1 and 4-1, which are controls, the metabolite suppression rate is 0%.” for “formula:”
# Metabolite suppression rate(%)=100×[(D−C)/D] • C: production amount of metabolite of reference or examination example (μg/fabric g) • D: production amount of metabolite of control (μg/fabric g)
smiles,measurement,setting,value
"CCCCCCCCCCCCO [Example C12OH, 1-dodecanol]",Metabolite suppression rate (%),[1]; agent 500 μg/fabric g,74% and 41%
same,Metabolite suppression rate (%),[1]; agent 1000 μg/fabric g,93% and 65%
same,Metabolite suppression rate (%),[1]; agent 2000 μg/fabric g,77%
same,Metabolite suppression rate (%),[1]; agent 3000 μg/fabric g,80%
same,Metabolite suppression rate (%),Rhodotorula mucilaginosa; agent 250 μg/fabric g,62% and 72.50%
same,Metabolite suppression rate (%),Rhodotorula mucilaginosa; agent 500 μg/fabric g,65.80%
same,Metabolite suppression rate (%),Rhodotorula mucilaginosa; agent 1000 μg/fabric g,82.20%
same,Metabolism of branched fatty acid: Residual amount (μg/fabric g),Moraxella osloensis [2]; 14-methylhexadecanoic acid,59 μg/fabric g
same,Metabolism of branched fatty acid: Metabolism suppression rate (%),Moraxella osloensis [2],33%
same,Product of metabolism of branched fatty acid: Metabolite suppression rate (%),Moraxella osloensis [3],20%
same,Product of metabolism of branched fatty acid: Production amount (μg/fabric g),Moraxella osloensis [3],3.5 μg/fabric g

# Reference: US20220408724A1, “METHOD FOR CONTROLLING METABOLISM OF BRANCHED FATTY ACID” (KAO CORPORATION, priority 2019, published 2022)
